Assay results as given in PubChem BioAssay (NCI).
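Cells were grown in 96-well plates and exposed to each compound for 48 hours at five concentrations; endpoints were interpolated linearly between bracketing concentrations, or set to the highest concentration if not reached. GI50: concentration for 50% inhibition of growth. The concentration for full growth arrest is given as TGI.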

Key:
Assay in all cases: NCI anticancer screen, dose series, 48 h
786-0 renal = system: 786-0 renal
A498 renal = system: A498 renal
A549 NSCLC = system: A549 NSCLC
ACHN renal = system: ACHN renal
BT-549 breast = system: BT-549 breast
CAKI-1 renal = system: CAKI-1 renal
CCRF-CEM leukemia = system: CCRF-CEM leukemia
COLO 205 colon = system: COLO 205 colon
DU-145 prostate = system: DU-145 prostate
EKVX NSCLC = system: EKVX NSCLC
HCC-2998 colon = system: HCC-2998 colon
HCT-116 colon = system: HCT-116 colon
HCT-15 colon = system: HCT-15 colon
HL-60(TB) leukemia = system: HL-60(TB) leukemia
HOP-62 NSCLC = system: HOP-62 NSCLC
HOP-92 NSCLC = system: HOP-92 NSCLC
HS 578T breast = system: HS 578T breast
HT29 colon = system: HT29 colon
IGROV1 ovarian = system: IGROV1 ovarian
K-562 leukemia = system: K-562 leukemia
KM12 colon = system: KM12 colon
LOX IMVI melanoma = system: LOX IMVI melanoma
M14 melanoma = system: M14 melanoma
MALME-3M melanoma = system: MALME-3M melanoma
MCF7 breast = system: MCF7 breast
MDA-MB-231 breast = system: MDA-MB-231 breast
MDA-MB-435 = system: MDA-MB-435
MDA-MB-468 breast = system: MDA-MB-468 breast
MOLT-4 leukemia = system: MOLT-4 leukemia
NCI-H226 lung = system: NCI-H226 lung
NCI-H23 lung = system: NCI-H23 lung
NCI-H460 lung = system: NCI-H460 lung
NCI-H522 lung = system: NCI-H522 lung
NCI/ADR-RES ovarian = system: NCI/ADR-RES ovarian
OVCAR-3 ovarian = system: OVCAR-3 ovarian
OVCAR-4 ovarian = system: OVCAR-4 ovarian
OVCAR-5 ovarian = system: OVCAR-5 ovarian
OVCAR-8 ovarian = system: OVCAR-8 ovarian
PC-3 prostate = system: PC-3 prostate
RPMI-8226 leukemia = system: RPMI-8226 leukemia
RXF 393 renal = system: RXF 393 renal
SF-268 CNS = system: SF-268 CNS
SF-295 CNS = system: SF-295 CNS
SF-539 CNS = system: SF-539 CNS
SK-MEL-2 melanoma = system: SK-MEL-2 melanoma
SK-MEL-28 melanoma = system: SK-MEL-28 melanoma
SK-MEL-5 melanoma = system: SK-MEL-5 melanoma
SK-OV-3 ovarian = system: SK-OV-3 ovarian
SN12C renal = system: SN12C renal
SNB-19 CNS = system: SNB-19 CNS
SNB-75 CNS = system: SNB-75 CNS
SR leukemia = system: SR leukemia
SW-620 colon = system: SW-620 colon
T-47D breast = system: T-47D breast
TK-10 renal = system: TK-10 renal
U251 CNS = system: U251 CNS
UACC-257 melanoma = system: UACC-257 melanoma
UACC-62 melanoma = system: UACC-62 melanoma
UO-31 renal = system: UO-31 renal

## COc1ccc2[nH]c(=O)c(CSc3ccccc3Nc3nccc(-c4ccc(C(F)(F)F)cc4)n3)cc2c1
786-0 renal
  GI50: 6.43 µM
  TGI: 19.1 µM
A498 renal
  GI50: 13.8 µM
  TGI: 26.7 µM
A549 NSCLC
  GI50: 5.28 µM
  TGI: 18.5 µM
ACHN renal
  GI50: 5 µM
  TGI: 16.9 µM
BT-549 breast
  GI50: 6.57 µM
  TGI: 19.7 µM
CAKI-1 renal
  GI50: 9.2 µM
  TGI: 21.2 µM
CCRF-CEM leukemia
  GI50: 3.84 µM
  TGI: 18.5 µM
COLO 205 colon
  GI50: 11.1 µM
  TGI: 23.1 µM
DU-145 prostate
  GI50: 8.89 µM
  TGI: 21 µM
EKVX NSCLC
  GI50: 10.3 µM
  TGI: 22.4 µM
HCC-2998 colon
  GI50: 5.27 µM
  TGI: 18.1 µM
HCT-116 colon
  GI50: 3.14 µM
  TGI: 10.6 µM
HCT-15 colon
  GI50: 4.69 µM
  TGI: 16.7 µM
HL-60(TB) leukemia
  GI50: 8.6 µM
  TGI: 28.2 µM
HOP-62 NSCLC
  GI50: 15.4 µM
  TGI: 28.7 µM
HOP-92 NSCLC
  GI50: 2.2 µM
  TGI: 17.3 µM
HS 578T breast
  GI50: 13.2 µM
  TGI: 36.5 µM
HT29 colon
  GI50: 3.64 µM
  TGI: 12.7 µM
IGROV1 ovarian
  GI50: 9.67 µM
  TGI: 21.4 µM
K-562 leukemia
  GI50: 4.46 µM
  TGI: 21.6 µM
KM12 colon
  GI50: 5.6 µM
  TGI: 17.9 µM
LOX IMVI melanoma
  GI50: 3.06 µM
  TGI: 11.5 µM
M14 melanoma
  GI50: 11.2 µM
  TGI: 23.2 µM
MALME-3M melanoma
  GI50: 12 µM
  TGI: 24.3 µM
MCF7 breast
  GI50: 2.97 µM
  TGI: 11 µM
MDA-MB-231 breast
  GI50: 11.1 µM
  TGI: 23.1 µM
MDA-MB-435
  GI50: 8.95 µM
  TGI: 21.1 µM
MDA-MB-468 breast
  GI50: 2.65 µM
  TGI: 10.2 µM
MOLT-4 leukemia
  GI50: 3.59 µM
  TGI: 15.7 µM
NCI-H226 lung
  GI50: 4.76 µM
  TGI: 18.8 µM
NCI-H23 lung
  GI50: 6.28 µM
  TGI: 19.3 µM
NCI-H460 lung
  GI50: 4.05 µM
  TGI: 14.5 µM
NCI-H522 lung
  GI50: 3.82 µM
  TGI: 16.2 µM
NCI/ADR-RES ovarian
  GI50: 4.32 µM
  TGI: 17.5 µM
OVCAR-3 ovarian
  GI50: 3.48 µM
  TGI: 15.2 µM
OVCAR-4 ovarian
  GI50: 3.42 µM
  TGI: 13.7 µM
OVCAR-5 ovarian
  GI50: 13 µM
  TGI: 25.7 µM
OVCAR-8 ovarian
  GI50: 9.59 µM
  TGI: 21.4 µM
PC-3 prostate
  GI50: 3.2 µM
  TGI: 12.6 µM
RPMI-8226 leukemia
  GI50: 3.27 µM
  TGI: 15.4 µM
RXF 393 renal
  GI50: 3.03 µM
  TGI: 8.62 µM
SF-268 CNS
  GI50: 5.15 µM
  TGI: 18.2 µM
SF-295 CNS
  GI50: 10.1 µM
  TGI: 21.6 µM
SF-539 CNS
  GI50: 10.3 µM
  TGI: 21.9 µM
SK-MEL-2 melanoma
  GI50: 10.8 µM
  TGI: 22.7 µM
SK-MEL-28 melanoma
  GI50: 11.8 µM
  TGI: 24.1 µM
SK-MEL-5 melanoma
  GI50: 10.5 µM
  TGI: 22.2 µM
SK-OV-3 ovarian
  GI50: 15.8 µM
  TGI: 29.3 µM
SN12C renal
  GI50: 3.74 µM
  TGI: 13.1 µM
SNB-19 CNS
  GI50: 13.5 µM
  TGI: 26.3 µM
SNB-75 CNS
  GI50: 12.5 µM
  TGI: 25.5 µM
SR leukemia
  GI50: 2.91 µM
  TGI: 11.1 µM
SW-620 colon
  GI50: 5.43 µM
  TGI: 18.2 µM
T-47D breast
  GI50: 5.66 µM
  TGI: 20.3 µM
TK-10 renal
  GI50: 17.4 µM
  TGI: 31.2 µM
U251 CNS
  GI50: 10.5 µM
  TGI: 22.3 µM
UACC-257 melanoma
  GI50: 13 µM
  TGI: 25.7 µM
UACC-62 melanoma
  GI50: 11.8 µM
  TGI: 24 µM
UO-31 renal
  GI50: 4.5 µM
  TGI: 18.1 µM

## O=C1CCC(N2Cc3c(C#CCCCNC(=O)c4ccc(NC(=O)[C@@H]5NC6(CCCCC6)[C@@]6(C(=O)Nc7cc(Cl)ccc76)[C@H]5c5cccc(Cl)c5F)cc4)cccc3C2=O)C(=O)N1 (some centres undefined)
786-0 renal
  GI50: 35.2 µM
  TGI: > 100 µM
A498 renal
  GI50: 25.7 µM
  TGI: > 100 µM
A549 NSCLC
  GI50: 1.04 µM
  TGI: > 100 µM
ACHN renal
  GI50: 3.86 µM
  TGI: > 100 µM
BT-549 breast
  GI50: 13.1 µM
  TGI: > 100 µM
CAKI-1 renal
  GI50: 1.2 µM
  TGI: > 100 µM
CCRF-CEM leukemia
  GI50: 11.6 µM
  TGI: > 100 µM
COLO 205 colon
  GI50: 72 µM
  TGI: > 100 µM
DU-145 prostate
  GI50: > 100 µM
  TGI: > 100 µM
EKVX NSCLC
  GI50: 8.32 µM
  TGI: > 100 µM
HCC-2998 colon
  GI50: 9.57 µM
  TGI: > 100 µM
HCT-116 colon
  GI50: 2.45 µM
  TGI: > 100 µM
HCT-15 colon
  GI50: 7.72 µM
  TGI: > 100 µM
HL-60(TB) leukemia
  GI50: 6.77 µM
  TGI: > 100 µM
HOP-62 NSCLC
  GI50: > 100 µM
  TGI: > 100 µM
HOP-92 NSCLC
  GI50: 5.27 µM
  TGI: > 100 µM
HS 578T breast
  GI50: 4.3 µM
  TGI: > 100 µM
HT29 colon
  GI50: 25.2 µM
  TGI: > 100 µM
IGROV1 ovarian
  GI50: 1.76 µM
  TGI: > 44 µM
K-562 leukemia
  GI50: 65 µM
  TGI: > 100 µM
KM12 colon
  GI50: 9.18 µM
  TGI: > 100 µM
LOX IMVI melanoma
  GI50: 0.953 µM
  TGI: > 100 µM
M14 melanoma
  GI50: 75 µM
  TGI: > 100 µM
MALME-3M melanoma
  GI50: 0.159 µM
  TGI: 20 µM
MCF7 breast
  TGI: > 49.8 µM
MDA-MB-231 breast
  GI50: 15.4 µM
  TGI: > 100 µM
MDA-MB-435
  GI50: 31.8 µM
  TGI: > 100 µM
MDA-MB-468 breast
  GI50: 4.38 µM
  TGI: > 35.7 µM
MOLT-4 leukemia
  TGI: 1.43 µM
NCI-H226 lung
  GI50: 0.2 µM
  TGI: > 74.5 µM
NCI-H23 lung
  GI50: > 88 µM
  TGI: > 100 µM
NCI-H460 lung
  GI50: 2.09 µM
  TGI: > 100 µM
NCI-H522 lung
  GI50: > 89.9 µM
  TGI: > 100 µM
NCI/ADR-RES ovarian
  GI50: > 100 µM
  TGI: > 100 µM
OVCAR-3 ovarian
  GI50: 15.8 µM
  TGI: > 100 µM
OVCAR-4 ovarian
  GI50: 7.28 µM
  TGI: 97.5 µM
OVCAR-5 ovarian
  GI50: > 53.2 µM
  TGI: > 100 µM
OVCAR-8 ovarian
  GI50: > 100 µM
  TGI: > 100 µM
PC-3 prostate
  GI50: 7.52 µM
  TGI: > 100 µM
RPMI-8226 leukemia
  GI50: 4.16 µM
  TGI: > 100 µM
RXF 393 renal
  GI50: 5.81 µM
  TGI: > 79 µM
SF-268 CNS
  GI50: 26 µM
  TGI: > 100 µM
SF-295 CNS
  GI50: 10.8 µM
  TGI: > 100 µM
SF-539 CNS
  GI50: 12.9 µM
  TGI: > 100 µM
SK-MEL-2 melanoma
  GI50: > 100 µM
  TGI: > 100 µM
SK-MEL-28 melanoma
  GI50: 96.8 µM
  TGI: > 100 µM
SK-MEL-5 melanoma
  GI50: 2.33 µM
  TGI: > 40.2 µM
SK-OV-3 ovarian
  GI50: > 95.6 µM
  TGI: > 100 µM
SN12C renal
  GI50: > 78.2 µM
  TGI: > 100 µM
SNB-19 CNS
  GI50: > 50.1 µM
  TGI: > 100 µM
SNB-75 CNS
  GI50: 2.5 µM
  TGI: > 72.1 µM
SR leukemia
  GI50: 0.25 µM
  TGI: 3.11 µM
SW-620 colon
  GI50: > 100 µM
  TGI: > 100 µM
T-47D breast
  GI50: 6.68 µM
  TGI: > 100 µM
TK-10 renal
  GI50: > 75.9 µM
  TGI: > 100 µM
U251 CNS
  GI50: 9.5 µM
  TGI: > 100 µM
UACC-257 melanoma
  GI50: 9.03 µM
  TGI: > 100 µM
UACC-62 melanoma
  GI50: 0.445 µM
  TGI: > 100 µM
UO-31 renal
  GI50: 3.04 µM
  TGI: > 100 µM
